Results as given in patent US10807952B2 (Achillion Pharmaceuticals, Inc., priority 2015, dated 2020).
Counter-ions that a name gives are not always drawn.

Each compound was assayed against Human Factor D (Homo sapiens (Human), UniProt P00746) (assay: Human Factor D assay (Z-L-Lys-SBzl / DTNB, absorbance at 405 nm)). Conditions: Table 3; Human Factor D 80 nM, assay of Example 13.
Type: biochemical
Experimental: Human Factor D (purified from human serum, Complement Technology, Inc.) at 80 nM final concentration was incubated with test compound at various concentrations for 5 minutes at room temperature in 50 mM Tris, 1M NaCl, pH 7.5. A synthetic substrate Z-L-Lys-SBzl and DTNB (Ellman's reagent) were added to final concentrations of 100 μM each. […] IC50 values were calculated by nonlinear regression of complement Factor D reaction rates as a function of test compound concentration.

Human Factor D, sequence (P00746 26-253): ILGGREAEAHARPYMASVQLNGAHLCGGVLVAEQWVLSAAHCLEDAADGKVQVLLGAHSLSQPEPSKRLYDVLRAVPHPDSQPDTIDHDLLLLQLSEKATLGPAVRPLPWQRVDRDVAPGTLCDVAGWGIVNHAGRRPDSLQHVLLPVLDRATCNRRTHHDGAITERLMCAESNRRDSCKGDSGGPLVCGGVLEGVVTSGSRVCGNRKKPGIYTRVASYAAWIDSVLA

Row | SMILES | IC50
1 | NC(=O)c1ccc(Cl)c(-c2cccc(NC(=O)[C@@H]3C[C@@H](F)CN3C(=O)Cn3nc(C(N)=O)c4sc(C(F)(F)F)cc43)c2F)c1 [Compound 39, 1-(2-((2S,4R)-2-((5′-Carbamoyl-2′-chloro-2-fluoro-[1,1′-biphenyl]-3-yl)carbamoyl)-4-fluoropyrrolidin-1-yl)-2-oxoethyl)-5-(trifluoromethyl)-1H-thieno[3,2-c]pyrazole-3-carboxamide] | < 1 µM
2 | CS(=N)(=O)c1cccc(-c2cccc(NC(=O)[C@@H]3C[C@@H](F)CN3C(=O)Cn3nc(C(N)=O)c4ccccc43)c2F)c1 (stereo partly drawn) [Compound 65, 1-(2-((2S,4R)-4-fluoro-2-(2-fluoro-3′-(S-methylsulfonimidoyl)biphenyl-3-ylcarbamoyl)pyrrolidin-1-yl)-2-oxoethyl)-1H-indazole-3-carboxamide] | 1 to 10 µM
3 | CC(=O)n1cc(CC(=O)N2C[C@H](F)C[C@H]2C(=O)Nc2cccc(-c3ccccc3Cl)c2F)c2ccc(-c3cnc(C)nc3)cc21 [Compound 60, (2S,4R)-1-(2-(1-acetyl-6-(2-methylpyrimidin-5-yl)-1H-indol-3-yl)acetyl)-N-(2′-chloro-2-fluorobiphenyl-3-yl)-4-fluoropyrrolidine-2-carboxamide] | < 1 µM
4 | CC(=O)c1cn(CC(=O)N(C)[C@H](C(=O)Nc2cccc(-c3ccccc3Cl)c2F)[C@@H](C)O)c2ccccc12 [Compound 15, (2S,3R)-2-(2-(3-acetyl-1H-indol-1-yl)-N-methylacetamido)-N-(2′-chloro-2-fluorobiphenyl-3-yl)-3-hydroxybutanamide] | 1 to 10 µM
5 | CC(=O)c1nc2ccc(-c3cccc(NC(=O)[C@@H]4C[C@@H](F)CN4C(=O)Cn4nc(C(N)=O)c5ccccc54)c3F)c(Cl)c2[nH]1 [Compound 18, 1-(2-((2S,4R)-2-(3-(2-acetyl-7-chloro-1H-benzo[d]imidazol-6-yl)-2-fluorophenyl-carbamoyl)-4-fluoropyrrolidin-1-yl)-2-oxoethyl)-1H-indazole-3-carboxamide] | < 1 µM
6 | Cc1nc2c(Cl)c(-c3cccc(NC(=O)[C@@H]4C[C@@H](F)CN4C(=O)Cn4nc(C(N)=O)c5ccccc54)c3F)ccc2[nH]1 [Compound 12, 1-(2-((2S,4R)-2-(3-(4-chloro-2-methyl-1H-benzo[d]imidazol-5-yl)-2-fluorophenyl-carbamoyl)-4-fluoropyrrolidin-1-yl)-2-oxoethyl)-1H-indazole-3-carboxamide] | < 1 µM
7 | CC(C)(C)OC(=O)NCC(=O)c1ccc(Cl)c(-c2cccc(NC(=O)[C@@H]3C[C@@H](F)CN3C(=O)Cn3nc(C(N)=O)c4ccccc43)c2F)c1 [Compound 51, tert-butyl 2-(3′-((2S,4R)-1-(2-(3-carbamoyl-1H-indazol-1-yl)acetyl)-4-fluoropyrrolidine-2-carboxamido)-6-chloro-2′-fluorobiphenyl-3-yl)-2-oxoethylcarbamate] | < 1 µM
8 | CC(=O)c1nn(CC(=O)N2C[C@H](F)C[C@H]2C(=O)Nc2cccc(-c3ccc4[nH]cnc4c3Cl)c2F)c2ccccc12 [Compound 3, (2S,4R)-1-(2-(3-acetyl-1H-indazol-1-yl)acetyl)-N-(3-(4-chloro-1H-benzo[d]imidazol-5-yl)-2-fluorophenyl)-4-fluoropyrrolidine-2-carboxamide] | < 1 µM
9 | Cn1cnc2c(Cl)c(-c3cccc(NC(=O)[C@@H]4C[C@@H](F)CN4C(=O)Cn4nc(C(N)=O)c5ccccc54)c3F)ccc21 [Compound 20, 1-(2-((2S,4R)-2-(3-(4-chloro-1-methyl-1H-benzo[d]imidazol-5-yl)-2-fluorophenyl-carbamoyl)-4-fluoropyrrolidin-1-yl)-2-oxoethyl)-1H-indazole-3-carboxamide] | < 1 µM
10 | NC(=O)c1nn(CC(=O)N2C[C@H](F)C[C@H]2C(=O)Nc2cccc(-c3ccc4cc[nH]c4c3)c2F)c2ccccc12 [Compound 25, 1-(2-((2S,4R)-4-fluoro-2-(2-fluoro-3-(1H-indol-6-yl)phenylcarbamoyl)pyrrolidin-1-yl)-2-oxoethyl)-1H-indazole-3-carboxamide] | < 1 µM
11 | NC(=O)c1nn(CC(=O)N2C[C@H](F)C[C@H]2C(=O)Nc2cccc(C(=O)Nc3nc4cccc(Cl)c4[nH]3)c2F)c2ccccc12 [Compound 46] | < 1 µM
12 | NC(=O)c1nn(CC(=O)N2C[C@H](F)C[C@H]2C(=O)Nc2cccc(-c3ccc4c(c3Cl)NC(=O)CN4)c2F)c2ccccc12 [Compound 59, 1-(2-((2S,4R)-2-((3-(5-Chloro-3-oxo-1,2,3,4-tetrahydroquinoxalin-6-yl)-2-fluorophenyl)carbamoyl)-4-fluoropyrrolidin-1-yl)-2-oxoethyl)-1H-indazole-3-carboxamide] | < 1 µM
13 | CC(=O)c1nn(CC(=O)N2[C@@H]3C[C@@H]3C[C@H]2C(=O)Nc2cccc(-c3ccc4[nH]cnc4c3Cl)c2F)c2ccccc12 [Compound 5, (1R,3S,5R)-2-(2-(3-acetyl-1H-indazol-1-yl)acetyl)-N-(3-(4-chloro-1H-benzo[d]imidazol-5-yl)-2-fluorophenyl)-2-azabicyclo[3.1.0]hexane-3-carboxamide] | < 1 µM
14 | N#Cc1cc(CC(=O)N2C[C@H](F)C[C@H]2C(=O)Nc2cccc(-c3ccccc3Cl)c2F)ccc1Cl [Compound 23, (2S,4R)-N-(2′-chloro-2-fluorobiphenyl-3-yl)-1-(2-(4-chloro-3-cyanophenyl)acetyl)-4-fluoropyrrolidine-2-carboxamide] | 1 to 10 µM
15 | CC(=O)c1cn(CC(=O)N[C@H](C(=O)Nc2cccc(-c3ccccc3Cl)c2F)[C@@H](C)O)c2ccccc12 [Compound 7, (2S,3R)-2-(2-(3-Acetyl-1H-indol-1-yl)acetamido)-N-(2′-chloro-2-fluorobiphenyl-3-yl)-3-hydroxybutanamide] | < 1 µM
16 | CC(C)(C)OC(=O)N=S(C)(=O)c1cccc(-c2cccc(NC(=O)[C@@H]3C[C@@H](F)CN3C(=O)Cn3nc(C(N)=O)c4ccccc43)c2F)c1 (stereo partly drawn) [Compound 64, tert-butyl ((3′-((2S,4R)-1-(2-(3-carbamoyl-1H-indazol-1-yl)acetyl)-4-fluoropyrrolidine-2-carboxamido)-2′-fluoro-[1,1′-biphenyl]-3-yl)(methyl)(oxo)-[…]^6-sulfanylidene)-[…]^4-azanecarboxylate] | 1 to 10 µM
17 | CO/N=C(\C)c1ccc(Cl)c(-c2cccc(NC(=O)[C@@H]3C[C@@H](F)CN3C(=O)Cn3nc(C(N)=O)c4ccccc43)c2F)c1 [Compound 8, 1-(2-((2S,4R)-2-((2′-Chloro-2-fluoro-5′-((E)-1-(methoxyimino)ethyl)-[1,1′-biphenyl]-3-yl)carbamoyl)-4-fluoropyrrolidin-1-yl)-2-oxoethyl)-1H-indazole-3-carboxamide] | < 1 µM
18 | Cc1cc2c(s1)c(C(N)=O)nn2CC(=O)N1C[C@H](F)C[C@H]1C(=O)Nc1cccc(-c2cc(C(N)=O)ccc2Cl)c1F [Compound 49, 1-(2-((2S,4R)-2-(5′-carbamoyl-2′-chloro-2-fluorobiphenyl-3-ylcarbamoyl)-4-fluoropyrrolidin-1-yl)-2-oxoethyl)-5-methyl-1H-thieno[3,2-c]pyrazole-3-carboxamide] | < 1 µM

Same assay, conditions: Table 4; Human Factor D 80 nM, assay of Example 13

Row | SMILES | IC50
19 | CC(=O)c1nn(CC(=O)N2C[C@H](F)C[C@H]2C(=O)Nc2cccc(-c3ccc4[nH]c(=O)[nH]c(=O)c4c3)c2F)c2ccccc12 [Compound 102, (2S,4R)-1-(2-(3-acetyl-1H-indazol-1-yl)acetyl)-N-(3-(2,4-dioxo-1,2,3,4-tetrahydroquinazolin-6-yl)-2-fluorophenyl)-4-fluoropyrrolidine-2-carboxamide] | < 1 µM
20 | CC(=O)c1nn(CC(=O)N2C[C@H](F)C[C@H]2C(=O)Nc2cccc(-c3ccc4sc(O)nc4c3)c2F)c2ccccc12 [Compound 103, (2S,4R)-1-(2-(3-acetyl-1H-indazol-1-yl)acetyl)-4-fluoro-N-(2-fluoro-3-(2-hydroxybenzo[d]thiazol-5-yl)phenyl)pyrrolidine-2-carboxamide] | < 1 µM
21 | CC(=O)c1nn(CC(=O)N2[C@@H]3C[C@@H]3C[C@H]2C(=O)Nc2cccc(-c3cc(Cl)c4[nH]ccc4c3)c2F)c2ccccc12 [Compound 86, (1R,3S,5R)-2-(2-(3-acetyl-1H-indazol-1-yl)acetyl)-N-(3-(7-chloro-1H-indol-5-yl)-2-fluorophenyl)-2-azabicyclo[3.1.0]hexane-3-carboxamide] | > 10 µM
22 | CC(=O)c1nn(CC(=O)N2C[C@H](F)C[C@H]2C(=O)Nc2cccc(-c3ccc4c(c3)NC(=O)NC4)c2F)c2ccccc12 [Compound 96, (2S,4R)-1-(2-(3-acetyl-1H-indazol-1-yl)acetyl)-4-fluoro-N-(2-fluoro-3-(2-oxo-1,2,3,4-tetrahydroquinazolin-7-yl)phenyl)pyrrolidine-2-carboxamide] | < 1 µM
24 | N#CNC(=O)c1ccc(Cl)c(-c2cccc(NC(=O)[C@@H]3C[C@@H](F)CN3C(=O)Cn3nc(C(N)=O)c4ccccc43)c2F)c1 [Compound 89, 1-(2-((2S,4R)-2-((2′-chloro-5′-(cyanocarbamoyl)-2-fluoro-[1,1′-biphenyl]-3-yl)carbamoyl)-4-fluoropyrrolidin-1-yl)-2-oxoethyl)-1H-indazole-3-carboxamide] | < 1 µM
25 | NC(=O)c1nn(CC(=O)N2C[C@H](F)C[C@H]2C(=O)Nc2cccc(-c3cc(C(=O)O)c4nc(N)[nH]c4c3)c2F)c2ccccc12 [Compound 77, 2-Amino-6-(3-((2S,4R)-1-(2-(3-carbamoyl-1H-indazol-1-yl)acetyl)-4-fluoropyrrolidine-2-carboxamido)-2-fluorophenyl)-1H-benzo[d]imidazole-4-carboxylic acid hydrochloride] | 1 to 10 µM
